Test results: PubChem BioAssay (NCI)
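Results reflect a 48-hour exposure of cells in 96-well plates to compound at five concentrations. GI50 marks 50% less growth. TGI denotes the concentration required for complete inhibition of growth.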

How the values were obtained:
Experiment in all cases: NCI tumour cell line growth inhibition, 48 h
786-0 renal = tested on: 786-0 renal
A498 renal = tested on: A498 renal
A549 NSCLC = tested on: A549 NSCLC
ACHN renal = tested on: ACHN renal
BT-549 breast = tested on: BT-549 breast
CAKI-1 renal = tested on: CAKI-1 renal
CCRF-CEM leukemia = tested on: CCRF-CEM leukemia
COLO 205 colon = tested on: COLO 205 colon
DU-145 prostate = tested on: DU-145 prostate
EKVX NSCLC = tested on: EKVX NSCLC
HCC-2998 colon = tested on: HCC-2998 colon
HCT-116 colon = tested on: HCT-116 colon
HCT-15 colon = tested on: HCT-15 colon
HOP-92 NSCLC = tested on: HOP-92 NSCLC
K-562 leukemia = tested on: K-562 leukemia
KM12 colon = tested on: KM12 colon
LOX IMVI melanoma = tested on: LOX IMVI melanoma
M14 melanoma = tested on: M14 melanoma
MCF7 breast = tested on: MCF7 breast
MDA-MB-231 breast = tested on: MDA-MB-231 breast
MDA-MB-435 = tested on: MDA-MB-435
MOLT-4 leukemia = tested on: MOLT-4 leukemia
NCI-H226 lung = tested on: NCI-H226 lung
NCI-H23 lung = tested on: NCI-H23 lung
NCI-H460 lung = tested on: NCI-H460 lung
NCI/ADR-RES ovarian = tested on: NCI/ADR-RES ovarian
OVCAR-4 ovarian = tested on: OVCAR-4 ovarian
OVCAR-5 ovarian = tested on: OVCAR-5 ovarian
OVCAR-8 ovarian = tested on: OVCAR-8 ovarian
PC-3 prostate = tested on: PC-3 prostate
RPMI-8226 leukemia = tested on: RPMI-8226 leukemia
SF-268 CNS = tested on: SF-268 CNS
SF-295 CNS = tested on: SF-295 CNS
SF-539 CNS = tested on: SF-539 CNS
SK-MEL-2 melanoma = tested on: SK-MEL-2 melanoma
SK-MEL-28 melanoma = tested on: SK-MEL-28 melanoma
SK-MEL-5 melanoma = tested on: SK-MEL-5 melanoma
SK-OV-3 ovarian = tested on: SK-OV-3 ovarian
SNB-19 CNS = tested on: SNB-19 CNS
SW-620 colon = tested on: SW-620 colon
T-47D breast = tested on: T-47D breast
TK-10 renal = tested on: TK-10 renal
U251 CNS = tested on: U251 CNS
UACC-257 melanoma = tested on: UACC-257 melanoma
UACC-62 melanoma = tested on: UACC-62 melanoma
UO-31 renal = tested on: UO-31 renal
HOP-62 NSCLC = tested on: HOP-62 NSCLC
HS 578T breast = tested on: HS 578T breast
HT29 colon = tested on: HT29 colon
IGROV1 ovarian = tested on: IGROV1 ovarian
MALME-3M melanoma = tested on: MALME-3M melanoma
NCI-H522 lung = tested on: NCI-H522 lung
OVCAR-3 ovarian = tested on: OVCAR-3 ovarian
RXF 393 renal = tested on: RXF 393 renal
SN12C renal = tested on: SN12C renal
SNB-75 CNS = tested on: SNB-75 CNS

In the case of O=C1Cc2c([nH]c3ccc(Br)cc23)-c2cc(Br)ccc2N1, the TGI (786-0 renal) is reported as greater than 100 µM, the TGI (A498 renal) is reported as greater than 100 µM and the TGI (A549 NSCLC) is reported as greater than 100 µM. The TGI (ACHN renal) was greater than 100 µM, the TGI (BT-549 breast) was greater than 100 µM and the TGI (CAKI-1 renal) was greater than 100 µM. The TGI (CCRF-CEM leukemia) was greater than 100 µM, the TGI (COLO 205 colon) was greater than 100 µM and the TGI (DU-145 prostate) was greater than 100 µM. For the same compound, the TGI (EKVX NSCLC) was greater than 100 µM, the TGI (HCC-2998 colon) was greater than 100 µM and the TGI (HCT-116 colon) was […]. It also gave a TGI (HCT-15 colon) greater than 100 µM, a TGI (HOP-92 NSCLC) greater than 100 µM and a TGI (K-562 leukemia) greater than 100 µM. The TGI (KM12 colon) was greater than 100 µM, the TGI (LOX IMVI melanoma) was greater than 100 µM and the TGI (M14 melanoma) was greater than 100 µM. The TGI (MCF7 breast) was greater than 100 µM, the TGI (MDA-MB-231 breast) was greater than 100 µM and the TGI (MDA-MB-435) was greater than 100 µM. The TGI (MOLT-4 leukemia) was greater than 100 µM, the TGI (NCI-H226 lung) was greater than 100 µM and the TGI (NCI-H23 lung) was greater than 100 µM. The TGI (NCI-H460 lung) was greater than 100 µM, the TGI (NCI/ADR-RES ovarian) was greater than 100 µM and the TGI (OVCAR-4 ovarian) was greater than 100 µM. For the same compound, the TGI (OVCAR-5 ovarian) was greater than 100 µM, the TGI (OVCAR-8 ovarian) was greater than 100 µM and the TGI (PC-3 prostate) was greater than 100 µM. The TGI (RPMI-8226 leukemia) was greater than 100 µM, the TGI (SF-268 CNS) was greater than 100 µM and the TGI (SF-295 CNS) was greater than 100 µM. It also gave a TGI (SF-539 CNS) greater than 100 µM, a TGI (SK-MEL-2 melanoma) greater than 100 µM and a TGI (SK-MEL-28 melanoma) greater than 100 µM. For the same compound, the TGI (SK-MEL-5 melanoma) was greater than 100 µM, the TGI (SK-OV-3 ovarian) was greater than 100 µM and the TGI (SNB-19 CNS) was greater than 100 µM. For the same compound, the TGI (SW-620 colon) was greater than 100 µM, the TGI (T-47D breast) was greater than 100 µM and the TGI (TK-10 renal) was greater than 100 µM. The TGI (U251 CNS) was greater than 100 µM, the TGI (UACC-257 melanoma) was greater than 100 µM and the TGI (UACC-62 melanoma) was greater than 100 µM. It also gave a TGI (UO-31 renal) greater than 100 µM.

Compound O=C(CCl)Nc1ccc(Cl)cc1 has a GI50 (786-0 renal) of 4.64 µM, a TGI (786-0 renal) of 19.5 µM and a GI50 (A498 renal) of 10.4 µM. It also gave a TGI (A498 renal) of 22.4 µM, a GI50 (A549 NSCLC) of 11.2 µM and a TGI (A549 NSCLC) of 26.9 µM. The GI50 (ACHN renal) was 3.13 µM, the TGI (ACHN renal) was 10.6 µM and the GI50 (BT-549 breast) was 2.78 µM. For the same compound, the TGI (BT-549 breast) was 9.92 µM, the GI50 (CAKI-1 renal) was 1.59 µM and the TGI (CAKI-1 renal) was 3.31 µM. It also gave a GI50 (COLO 205 colon) of 1.98 µM, a TGI (COLO 205 colon) of 3.61 µM and a GI50 (DU-145 prostate) of 4.92 µM. For the same compound, the TGI (DU-145 prostate) was 17.4 µM, the GI50 (EKVX NSCLC) was 6.93 µM and the TGI (EKVX NSCLC) was 26.3 µM. The GI50 (HCC-2998 colon) was 11.3 µM, the TGI (HCC-2998 colon) was 24.9 µM and the GI50 (HCT-116 colon) was 2.7 µM. It also gave a TGI (HCT-116 colon) of 10.2 µM, a GI50 (HCT-15 colon) of 2.27 µM and a TGI (HCT-15 colon) of 6.33 µM. For the same compound, the GI50 (HOP-62 NSCLC) was 2.01 µM, the TGI (HOP-62 NSCLC) was 3.91 µM and the GI50 (HOP-92 NSCLC) was 6.67 µM. The TGI (HOP-92 NSCLC) was 20.7 µM, the GI50 (HS 578T breast) was 3.96 µM and the TGI (HS 578T breast) was 42.4 µM. The GI50 (HT29 colon) was 2.03 µM, the TGI (HT29 colon) was 4.26 µM and the GI50 (IGROV1 ovarian) was 2.11 µM. It also gave a TGI (IGROV1 ovarian) of 5.04 µM, a GI50 (KM12 colon) of 8.06 µM and a TGI (KM12 colon) of 21 µM. It also gave a GI50 (LOX IMVI melanoma) of 1.56 µM, a TGI (LOX IMVI melanoma) of 4.23 µM and a GI50 (M14 melanoma) of 4.45 µM. For the same compound, the TGI (M14 melanoma) was 17 µM, the GI50 (MALME-3M melanoma) was 3.33 µM and the TGI (MALME-3M melanoma) was 13.2 µM. For the same compound, the GI50 (MCF7 breast) was 1.78 µM, the TGI (MCF7 breast) was 4.54 µM and the GI50 (MDA-MB-231 breast) was 5.24 µM. The TGI (MDA-MB-231 breast) was 25.9 µM, the GI50 (MDA-MB-435) was 4.4 µM and the TGI (MDA-MB-435) was 20.4 µM. It also gave a GI50 (NCI-H226 lung) of 4.17 µM, a TGI (NCI-H226 lung) of 15.7 µM and a GI50 (NCI-H23 lung) of 3.29 µM. For the same compound, the TGI (NCI-H23 lung) was 14.3 µM, the GI50 (NCI-H460 lung) was 3.86 µM and the TGI (NCI-H460 lung) was 16.5 µM. It also gave a GI50 (NCI-H522 lung) of 1.48 µM, a TGI (NCI-H522 lung) of 3.01 µM and a GI50 (NCI/ADR-RES ovarian) of 2.8 µM. It also gave a TGI (NCI/ADR-RES ovarian) of 8.96 µM, a GI50 (OVCAR-3 ovarian) of 1.88 µM and a TGI (OVCAR-3 ovarian) of 3.62 µM. For the same compound, the GI50 (OVCAR-4 ovarian) was 5.68 µM, the TGI (OVCAR-4 ovarian) was 25.3 µM and the GI50 (OVCAR-5 ovarian) was 3.57 µM. The TGI (OVCAR-5 ovarian) was 12.9 µM, the GI50 (OVCAR-8 ovarian) was 4.6 µM and the TGI (OVCAR-8 ovarian) was greater than 100 µM. For the same compound, the GI50 (PC-3 prostate) was 7.36 µM, the TGI (PC-3 prostate) was 23.7 µM and the GI50 (RPMI-8226 leukemia) was 3.14 µM. It also gave a TGI (RPMI-8226 leukemia) of 9.45 µM, a GI50 (RXF 393 renal) of 2.14 µM and a TGI (RXF 393 renal) of 4.43 µM. It also gave a GI50 (SF-268 CNS) of 2.72 µM, a TGI (SF-268 CNS) of 7.66 µM and a GI50 (SF-295 CNS) of 3.45 µM. The TGI (SF-295 CNS) was 13.3 µM, the GI50 (SF-539 CNS) was 3.78 µM and the TGI (SF-539 CNS) was 12.6 µM. For the same compound, the GI50 (SK-MEL-2 melanoma) was 2.51 µM, the TGI (SK-MEL-2 melanoma) was 6.16 µM and the GI50 (SK-MEL-28 melanoma) was 9.31 µM. For the same compound, the TGI (SK-MEL-28 melanoma) was 22.1 µM, the GI50 (SK-MEL-5 melanoma) was 1.71 µM and the TGI (SK-MEL-5 melanoma) was 3.16 µM. The GI50 (SK-OV-3 ovarian) was 6.93 µM, the TGI (SK-OV-3 ovarian) was 23 µM and the GI50 (SN12C renal) was 3.4 µM. For the same compound, the TGI (SN12C renal) was 22.9 µM, the GI50 (SNB-19 CNS) was 10.3 µM and the TGI (SNB-19 CNS) was 25.6 µM. For the same compound, the GI50 (SNB-75 CNS) was 7.43 µM, the TGI (SNB-75 CNS) was 21.1 µM and the GI50 (SW-620 colon) was 3.45 µM. The TGI (SW-620 colon) was 11.2 µM, the GI50 (T-47D breast) was 3.8 µM and the TGI (T-47D breast) was 15.6 µM. It also gave a GI50 (TK-10 renal) of 2.3 µM, a TGI (TK-10 renal) of 5.75 µM and a GI50 (U251 CNS) of 2.22 µM. It also gave a TGI (U251 CNS) of 5.26 µM, a GI50 (UACC-257 melanoma) of 10.4 µM and a TGI (UACC-257 melanoma) of 27.1 µM. It also gave a GI50 (UACC-62 melanoma) of 3.6 µM, a TGI (UACC-62 melanoma) of 17 µM and a GI50 (UO-31 renal) of 8.07 µM. It also gave a TGI (UO-31 renal) of 24.1 µM.
